Data published in paper PMC12022103 (Scientific Reports, 2025).
In brackets after ≈: the same amount, converted by molar mass. Non-standard residues stand in square brackets, D forms with d. Residues, ends and D or L forms follow the SMILES beside them. No end group written: not given here. AEEA = NCCOCCOCC(=O)O

Experiments:
[1] = test system: E. coli ATCC 25922; experiment: Minimum bactericidal concentration (MBC); assay type: cell-based, Escherichia coli; conditions: 5 µL from MIC wells plated on MH II agar, 37 °C overnight, no visible colonies, triplicate, highest number reported, detection limit <0.5 and >128 µM
Description: (§1) The panel of bacterial reference strains used in this work for assessment of synthetic peptide activity originated from the American Type Culture Collection (ATCC) and was obtained from the Diagnostic section at the Department of Microbiology, Oslo University Hospital. The strains used were as follows: E. coli ATCC 25922, K. pneumoniae ATCC 13883, A. baumannii ATCC 17978, S. aureus ATCC 29213, and E. faecalis ATCC 29212.
(§2) Bacterial strains were plated on cation-adjusted Mueller-Hinton (MH II) agar plates and incubated at 37 °C overnight. The day after single colonies were picked and resuspended in sterile-filtered saline (0.9%). The OD of each bacterial suspension was adjusted to McFarland standard 0.5 using a spectrophotometer (UV-1800, Shimadzu), and the suspension further diluted 1:100 in MH II broth, corresponding to 10^6 colony forming units (CFU) per mL. The inoculum suspension was used for MIC, MBC, time-kill and protease stability assessments as described below. To ensure correct inoculum sizes, 10 µL of the bacterial suspensions were diluted 2000-fold in sterile-filtered saline (0.9%) and 100 µL plated onto MH II agar plates. After overnight incubation at 37 °C, colonies were counted. If found to be outside the acceptable number (20–80 colonies per plate corresponding to ∼10^6 CFU/mL), results from further analyses were discarded.
(§3) In order to assess the minimum bactericidal concentration (MBC) of peptides, 5 µL from each well of the 96-well plate used for MIC analysis was plated onto MH II agar and incubated at 37 °C overnight. […] The experiments were performed in triplicate. Two-fold variations in MIC values were often observed between replicates.

[2] = test system: P. aeruginosa; experiment: Minimum bactericidal concentration (MBC); assay type: cell-based; conditions: 5 µL from MIC wells plated on MH II agar, 37 °C overnight, no visible colonies; triplicate, highest number reported
[3] = test system: E. faecalis ATCC 29212; experiment: Minimum bactericidal concentration (MBC); assay type: cell-based; conditions: 5 µL from MIC wells plated on MH II agar, 37 °C overnight, no visible colonies, triplicate, highest number reported
Description: as §1, §2, §3

[4] = test system: K. pneumoniae ATCC 13883; experiment: Minimum bactericidal concentration (MBC); assay type: cell-based; conditions: 5 µL from MIC wells plated on MH II agar, 37 °C overnight, no visible colonies, triplicate, highest number reported
Description: as §1, §2, §3

[5] = test system: S. aureus ATCC 29213; experiment: Minimum bactericidal concentration (MBC); assay type: cell-based; conditions: 5 µL from MIC wells plated on MH II agar, 37 °C overnight, no visible colonies, triplicate, highest number reported
Description: as §1, §2, §3

[6] = test system: A. baumannii ATCC 17978; experiment: Minimum bactericidal concentration (MBC); assay type: cell-based; conditions: 5 µL from MIC wells plated on MH II agar, 37 °C overnight, no visible colonies, triplicate, highest number reported
Description: as §1, §2, §3

[7] = test system: E. coli ATCC 25922; experiment: Minimum inhibitory concentration (MIC), broth dilution; assay type: cell-based, Escherichia coli; conditions: E. coli ATCC 25922; two-fold dilution in MH II broth, 5 × 10^5 CFU/mL, 18–24 h, 37 °C, OD600; triplicate, highest number reported; detection limit <0.5 and >128 µM
Description: as §1, §2
(§4) The peptides were serially diluted (two-fold) directly in 96-well plates (Greiner, MICROPLATE, 96 WELL, PP, U-BOTTOM, NATURAL, 650261) containing MH II broth, corresponding to concentrations in the range 256–0.5 µM. An equal volume of bacterial suspension was added to each well, resulting in a final inoculum of 5 × 10^5 CFU/mL and final peptide concentrations of 128–0.25 µM. The 96-well plates were incubated for 18–24 h at 37 °C, after which the OD of each well was measured at 600 nm in a plate reader (Victor Nivo, Perkin-Elmer). The minimum inhibitory concentration (MIC) was estimated as the lowest concentration of peptide that produced OD600 measurements similar to the control wells containing no bacteria. The experiments were performed in triplicate. Two-fold variations in MIC values were often observed between replicates.

[8] = test system: E. faecalis ATCC 29212; experiment: as above; assay type: cell-based; conditions: E. faecalis ATCC 29212; MH II broth, 5 × 10^5 CFU/mL, 18–24 h, 37 °C, OD600; triplicate, highest number reported; detection limit <0.5 and >128 µM
Description: as §1, §2, §4

[9] = test system: K. pneumoniae ATCC 13883; experiment: as above; assay type: cell-based; conditions: K. pneumoniae ATCC 13883; MH II broth, 5 × 10^5 CFU/mL, 18–24 h, 37 °C, OD600; triplicate, highest number reported; detection limit <0.5 and >128 µM
Description: as §1, §2, §4

[10] = test system: S. aureus ATCC 29213; experiment: as above; assay type: cell-based; conditions: S. aureus ATCC 29213; MH II broth, 5 × 10^5 CFU/mL, 18–24 h, 37 °C, OD600; triplicate, highest number reported; detection limit <0.5 and >128 µM
Description: as §1, §2, §4

[11] = test system: A. baumannii ATCC 17978; experiment: as above; assay type: cell-based; conditions: MH II broth, 5 × 10^5 CFU/mL, 18–24 h, 37 °C, OD600, triplicate, highest number reported, detection limit <0.5 and >128 µM
Description: as §1, §2, §4

[12] = test system: P. aeruginosa; experiment: as above; assay type: cell-based; conditions: MH II broth, 5 × 10^5 CFU/mL, 18–24 h, 37 °C, OD600; triplicate, highest number reported; detection limit <0.5 and >128 µM

Row | Compound | MBC, E. coli [1] [µM] | MBC, P. aeruginosa [2] [µM] | MBC, E. faecalis [3] [µM] | MBC, K. pneumoniae [4] [µM] | MBC, S. aureus [5] [µM] | MBC, A. baumannii [6] [µM] | MIC, E. coli [7] [µM] | MIC, E. faecalis [8] [µM] | MIC, K. pneumoniae [9] [µM] | MIC, S. aureus [10] [µM] | MIC, A. baumannii [11] [µM] | MIC, P. aeruginosa [12] [µM]
1 | CC[C@H](C)[C@H](NC(=O)[C@H](CC(C)C)NC(=O)[C@H](CCC(N)=O)NC(=O)[C@H](CC(C)C)NC(=O)[C@@H](NC(=O)[C@H](C)NC(=O)COCCOCCNC(=O)[C@H](CCCCN)NC(=O)[C@H](CCCCN)NC(=O)[C@H](CCCCN)NC(=O)[C@H](CCCCN)NC(=O)[C@H](CCCCN)NC(=O)[C@@H](N)C(C)C)C(C)C)C(=O)N[C@@H](CC(C)C)C(=O)N[C@@H](CCCCN)C(=O)N[C@@H](Cc1ccccc1)C(=O)N[C@@H](CC(C)C)C(N)=O [3c-N10] (H-VKKKKK[AEEA]AVLQLILKFL-NH2) | 16 (≈ 32.7 µg/mL) | 32 (≈ 65.3 µg/mL) | 16 (≈ 32.7 µg/mL) | 16 (≈ 32.7 µg/mL) | 32 (≈ 65.3 µg/mL) | 16 (≈ 32.7 µg/mL) | 16 (≈ 32.7 µg/mL) | 16 (≈ 32.7 µg/mL) | 16 (≈ 32.7 µg/mL) | 32 (≈ 65.3 µg/mL) | 16 (≈ 32.7 µg/mL) | 64 (≈ 131 µg/mL)
2 | CC[C@H](C)[C@H](NC(=O)[C@H](CC(C)C)NC(=O)[C@H](CCC(N)=O)NC(=O)[C@H](CC(C)C)NC(=O)[C@@H](NC(=O)[C@H](C)NC(=O)[C@H](CCCCN)NC(=O)[C@H](CCCCN)NC(=O)[C@H](CCCCN)NC(=O)COCCOCCNC(=O)[C@H](CCCCN)NC(=O)[C@H](CCCCN)NC(=O)[C@@H](N)C(C)C)C(C)C)C(=O)N[C@@H](CC(C)C)C(=O)N[C@@H](CCCCN)C(=O)N[C@@H](Cc1ccccc1)C(=O)N[C@@H](CC(C)C)C(N)=O [3d-N10] (H-VKK[AEEA]KKKAVLQLILKFL-NH2) | 16 (≈ 32.7 µg/mL) | 64 (≈ 131 µg/mL) | 32 (≈ 65.3 µg/mL) | 32 (≈ 65.3 µg/mL) | 32 (≈ 65.3 µg/mL) | 16 (≈ 32.7 µg/mL) | 16 (≈ 32.7 µg/mL) | 32 (≈ 65.3 µg/mL) | 32 (≈ 65.3 µg/mL) | 32 (≈ 65.3 µg/mL) | 16 (≈ 32.7 µg/mL) | 64 (≈ 131 µg/mL)
3 | CC[C@H](C)[C@H](NC(=O)[C@H](CC(C)C)NC(=O)[C@H](CCC(N)=O)NC(=O)[C@H](CC(C)C)NC(=O)[C@@H](NC(=O)[C@H](C)NC(=O)[C@H](CCCCN)NC(=O)[C@H](CCCCN)NC(=O)[C@H](CCCCN)NC(=O)[C@H](CCCCN)NC(=O)[C@H](CCCCN)NC(=O)[C@@H](N)C(C)C)C(C)C)C(=O)NCCOCCOCC(=O)N[C@@H](CC(C)C)C(=O)N[C@@H](CCCCN)C(=O)N[C@@H](Cc1ccccc1)C(=O)N[C@@H](CC(C)C)C(N)=O [3e-N10] (H-VKKKKKAVLQLI[AEEA]LKFL-NH2) | 128 (≈ 261 µg/mL) | > 128 | > 128 | 128 (≈ 261 µg/mL) | > 128 | 64 (≈ 131 µg/mL) | 128 (≈ 261 µg/mL) | > 128 | 128 (≈ 261 µg/mL) | > 128 | 32 (≈ 65.3 µg/mL) | 32 (≈ 65.3 µg/mL)
4 | KKKKAVLQLILLFL-NH2 [2a-N12] | > 128 | > 128 | > 128 | > 128 | > 128 | > 128 | > 128 | > 128 | > 128 | > 128 | > 128 | > 128
5 | KKKKFVLKLILKLL-NH2 [2e-N12] | > 128 | > 128 | > 128 | > 128 | > 128 | > 128 | > 128 | > 128 | > 128 | > 128 | > 128 | > 128
6 | KKKKFVLQLILKLL-NH2 [2f-N12] | > 128 | > 128 | > 128 | > 128 | > 128 | > 128 | > 128 | > 128 | > 128 | > 128 | > 128 | > 128
7 | KKKKIAVLQLILLFL-NH2 [2b-N12] | > 128 | > 128 | > 128 | > 128 | > 128 | > 128 | > 128 | > 128 | > 128 | > 128 | > 128 | > 128
8 | KKKKIIAVLQLILLFL-NH2 [2c-N12] | > 128 | > 128 | > 128 | > 128 | > 128 | > 128 | > 128 | > 128 | > 128 | > 128 | > 128 | > 128
